The subject of assay [1] is dopamine (DA) in the striata of MPTP-treated mice. Nature of the assay: Levels of dopamine in the striata of MPTP-treated mice (HPLC). It counts as in vivo. The note with it: Mus musculus, po, 168 h, 10 mpk, 7 days after MPTP, read-out: Levels of dopamine (DA) in the striata, compared to a control group %. As for the experimental part: (§1) A. MPTP (1-methyl-4-phenyl-1,2,3,6-tetrahydropyridine) and drug treatment MPTP (20 mg/kg, free base; Sigma, St. louis, Mo.) was administered to an 8 week old (20-25 g) male C57BL/6 test mouse intraperitoneally three times a day at the interval of 2 hours to construct a model (Breidert et al., 2002; Lichuan Yang, Shuei Sugama, Jason W. Chirichigno, Jason Gregorio, Stefan Lorenzl, Dong H. Shin, Susan E. Browne, Yoshinori Shimizu, Tong H. Joh, M. Flint Beal, l and David S. Alber. (2003) Minocycline Enhances MPTP Toxicity to Dopaminergic Neurons. J Neurosci Res. 74:278-285). In order to observe the protective effects of the compound as a candidate drug, the compound was dissolved in a solution containing 10% dimethylsulfoxide (DMSO), 10% Cremophor, and 40% polyethyleneglycol (PEG), […] treatment. Rasagiline as a control drug was also dissolved in the same solution, and the resulting solution was administered at the same doses in the same manner as above. A control group (Sham) in which MPTP was not administered was constructed by intraperitoneally administering saline solution to the group instead of MPTP in the same manner as above and orally administering the same solution 1 hour before and after PBS treatment.
The changes of contents of dopamine and dopamine metabolites in the striatum in accordance with administrations of MPTP and the drug were measured by high performance liquid chromatography (HPLC). At 7 days after administration of the drug, the animal was sacrificed by cervical vertebra dislocation and the brain tissues were immediately isolated from the animal. 0.5 ml of iced solution for HPLC analysis (0.1 M perchloric acid and 0.1 mM EDTA) was added to a striatum obtained from the isolated brain tissues, and an ultrasonic grinder was used to prepare a tissue homogenate. The tissue homogenate was centrifuged at 12,000 rpm for 15 minutes, and its supernatant was filtered through nitrocellulose membrane filter (0.2 um, Millipore). For HPLC analysis, uBondapak™ C18 column (4.6×150 mm, particle size 10 μm: Shisheido, Japan) was used, the flow rate of the mobile phase (0.07 M monobasic sodium phosphate), 1 mM sodium octasulfonic acid, 0.1 uM EDTA, 5% acetonitrile, pH 3.2) was maintained at 0.7 ml/min, and the electrode potential of the electrochemical detector (ICA-5000, Japan) was set at 700 mV.

For the next assay, the system named is MPTP-induced mouse model. Kind of assay: Tail suspension test in MPTP-induced mouse model of Parkinson's disease. Format: in vivo. The note with it: Mus musculus, 168 h; administration concentration 10 (10 mg/kg), oral, 7 days after MPTP; % of control group (Sham); read-out: Mobility (%). As for the experimental part:
as §1
A tail suspension test was performed in order to measure the induction degree of behavioral dysfunctions in accordance with administration of MPTP and a drug. At 7 days after administration of the drug, a round stainless steel rod (width: 1 cm) was affixed to a cage (width: 16 cm, height: 40 cm) 35 cm above from the surface shielded by black wooden structures in the left and right sides to perform experiments. The time for which the animal moved for a total period of 6 minutes was measured in seconds to evaluate the drug action.
Mobility refers to an expression of the measurement of the time for which the animal moved with its tail hung high as a percentage compared to the measurement of a control group.

Assay [2] relates to dopamine (DA) in the striatum of a MPTP-treated mouse. Kind of assay: Combined administration with Levodopa group: dopamine in the striatum of MPTP-treated mouse (HPLC). Format: in vivo. The conditions noted are these: compound 1 mg/kg PO co-administered with Levodopa group (Levodopa 50 mg/kg + Benzerazide 25 mg/kg IP); for Concentration of dopamine compared to a control group %, 1 hr: 1 hr after Levodopa; for Concentration of dopamine compared to a control group %, 3 hr: 3 hr after Levodopa.

In assay [3] the target is T1, Monoamineoxidase B type human-derived enzyme (Homo sapiens, UniProt P27338).
T1 sequence (P27338 1-520): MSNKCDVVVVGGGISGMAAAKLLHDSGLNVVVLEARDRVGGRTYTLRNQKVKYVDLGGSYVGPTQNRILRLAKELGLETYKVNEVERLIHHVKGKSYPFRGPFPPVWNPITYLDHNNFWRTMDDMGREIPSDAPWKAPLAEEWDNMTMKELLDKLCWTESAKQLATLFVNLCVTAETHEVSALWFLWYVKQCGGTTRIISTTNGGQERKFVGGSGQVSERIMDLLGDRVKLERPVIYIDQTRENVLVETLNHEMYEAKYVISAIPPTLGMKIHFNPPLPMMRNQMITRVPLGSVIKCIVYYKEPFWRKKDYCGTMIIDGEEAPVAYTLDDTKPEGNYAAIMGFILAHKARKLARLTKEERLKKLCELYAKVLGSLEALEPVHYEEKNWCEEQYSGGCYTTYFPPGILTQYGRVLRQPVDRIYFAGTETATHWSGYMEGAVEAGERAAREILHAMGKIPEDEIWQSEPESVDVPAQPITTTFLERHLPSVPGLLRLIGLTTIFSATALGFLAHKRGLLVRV
Nature of the assay: Inhibitory effects on the activity of MAO-B (Amplex Red fluorescence, benzylamine substrate). Format: biochemical. The conditions noted are these: read-out: Inhibitory effects (%) on the activity of MAO-B. A digest of the protocol: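 Human MAO-B, diluted 1:200 in 0.05 M sodium phosphate pH 7.4, was pre-incubated with compound for 30 min. It was then mixed 1:1 with working buffer holding 400 μM Amplex Red, 2 U/ml HRP and 2 mM benzylamine (working-buffer levels). Fluorescence (Ex 563/Em 587 nm) was read over 30 min.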

Read-outs that look alike come from different tables or passages of the source.

As to `NC(=O)OCc1cc(-c2ccc(OCc3ccccc3)c(Br)c2)no1` [Example 6, carbamic acid 3-(4-benzyloxy-3-bromo-phenyl)-isoxazol-5-ylmethyl ester], the response vs control in vivo at 10 mg/kg in assay [1] is 112%. In addition, in the assay on MPTP-induced mouse model, the response vs control in vivo at 10 mg/kg was 82.9%. Also, in assay [2], the “Concentration of dopamine compared to a control group %, 1 hr” value (shortened to “Concentration … to a control group %, 1 hr”) is listed as 220.87% and the “Concentration of dopamine compared to a control group %, 3 hr” value (from here on “Concentration … to a control group %, 3 hr”) is listed as 59.8%. In addition, in assay [3] (treatment concentration 10 nM), the inhibition at 0.01 µM is 90.7%.
In the case of `NC(=O)OCc1cc(-c2ccc(OCc3c(Cl)cncc3Cl)cc2)no1` [Example 69, Carbamic acid 3-[4-(3,5-dichloro-pyridin-4-ylmethoxy)-phenyl]-isoxazol-5-ylmethyl ester], in assay [1], the response vs control in vivo at 10 mg/kg was found to be 100%. In the assay on MPTP-induced mouse model, the response vs control in vivo at 10 mg/kg is 97.4%. In assay [2], the “Concentration … to a control group %, 1 hr” value is 205.2% and the “Concentration … to a control group %, 3 hr” value was found to be 200.4%. The inhibition at 0.01 µM in assay [3] (treatment concentration 10 nM) was found to be 83.6%.
In the same order, the values of `CNC(=O)OCc1cc(-c2ccc(OCc3ccccc3)cc2)no1` [Example 121, methyl-carbamic acid 3-(4-benzyloxy-phenyl)-isoxazol-5-ylmethyl ester] are 97.9%, 91.2%, 144.6%, 89.2% and 82.8%.
`NC(=O)OCc1cc(-c2ccc(OCc3ccc(Cl)s3)cc2)no1` [Example 62, Carbamic acid 3-[4-(5-chloro-thiophen-2-ylmethoxy)-phenyl]-isoxazol-5-ylmethyl ester]: the response vs control in vivo at 10 mg/kg in assay [1] amounted to 99.1%. The response vs control in vivo at 10 mg/kg with MPTP-induced mouse model is 97.3%. In assay [2], the “Concentration … to a control group %, 1 hr” value was determined as 204.8% and the “Concentration … to a control group %, 3 hr” value worked out at 65.4%. The inhibition at 0.01 µM in assay [3] stood at 98.6%.
